Experimental findings from patent publication US7790717B2, “Spiro-oxazolidinone compounds and their use as metabotropic glutamate receptor potentiators” (AstraZeneca AB, priority 2006, dated 2010) are described below.

Usually EC50 stands for the midpoint of the concentration-response curve.

T1 sequence (Q14416 19-872): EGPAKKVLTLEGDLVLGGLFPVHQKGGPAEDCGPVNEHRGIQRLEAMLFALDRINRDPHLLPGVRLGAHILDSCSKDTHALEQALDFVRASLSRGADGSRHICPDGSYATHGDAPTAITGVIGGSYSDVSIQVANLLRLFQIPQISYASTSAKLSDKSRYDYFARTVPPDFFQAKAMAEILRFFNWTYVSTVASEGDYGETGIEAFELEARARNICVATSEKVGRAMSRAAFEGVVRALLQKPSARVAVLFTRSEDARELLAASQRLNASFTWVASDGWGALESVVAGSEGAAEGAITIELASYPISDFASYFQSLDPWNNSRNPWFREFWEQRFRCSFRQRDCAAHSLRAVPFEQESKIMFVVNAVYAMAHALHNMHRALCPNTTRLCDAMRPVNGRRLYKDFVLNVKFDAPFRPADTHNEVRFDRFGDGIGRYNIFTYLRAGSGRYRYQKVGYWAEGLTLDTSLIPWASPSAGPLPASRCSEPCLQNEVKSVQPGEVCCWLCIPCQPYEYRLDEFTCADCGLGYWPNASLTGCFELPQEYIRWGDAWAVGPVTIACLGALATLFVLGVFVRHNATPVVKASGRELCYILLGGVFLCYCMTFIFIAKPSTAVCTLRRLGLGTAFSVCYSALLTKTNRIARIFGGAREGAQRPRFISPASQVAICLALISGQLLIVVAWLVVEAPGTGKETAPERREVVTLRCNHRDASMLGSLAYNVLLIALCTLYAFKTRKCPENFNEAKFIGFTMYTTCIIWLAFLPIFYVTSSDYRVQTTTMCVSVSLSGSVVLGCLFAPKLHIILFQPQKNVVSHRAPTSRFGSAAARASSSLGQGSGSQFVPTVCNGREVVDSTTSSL

The assay addresses T1, human mGluR2 (Homo sapiens, UniProt Q14416).
T1 construct: expressed in transfected cells; host or cells: CHO cells, stably transfected; membrane preparation
The assay is described as follows: [35S]-GTPγS binding assay of mGluR2 receptor activation (allosteric activator activity). In kind it is biochemical. Particulars: membranes from CHO cells stably expressing human mGluR2; in presence of 1 μM glutamate. The protocol: A [^35S]-GTPγS binding assay was used to functionally assay mGluR2 receptor activation. The allosteric activator activity of compounds at the human mGluR2 receptor were measured using a [^35S]-GTPγS binding assay with membranes prepared from CHO cells which stably express the human mGluR2. The assay is based upon the principle that agonists bind to G-protein coupled receptors to stimulate GDP-GTP exchange at the G-protein. Since [^35S]-GTPγS is a non-hydrolyzable GTP analog, it can be used to provide an index of GDP-GTP exchange and, thus, receptor activation. The GTPγS binding assay therefore provides a quantitative measure of receptor activation.
Membranes were prepared from CHO cells stably transfected with human mGluR2. Membranes (30 μg protein) were incubated with test compound (3 nM to 300 μM) for 15 minutes at room temperature prior to the addition of 1 μM glutamate, and incubated for 30 min at 30° C. in 500 μL assay buffer (20 mM HEPES, 100 mM NaCl, 10 mM MgCl2), containing 30 μM GDP and 0.1 nM [^35S]-GTPγS (1250 Ci/mmol). Reactions were carried out in triplicate in 2 mL polypropylene 96-well plates. Reactions were terminated by vacuum filtration using a Packard 96-well harvester and Unifilter-96, GF/B filter microplates. The filter plates were washed 4×1.5 mL with ice-old wash buffer (10 mM sodium phosphate buffer, pH 7.4). The filter plates were dried and 35 μL of scintillation fluid (Microscint 20) was added to each well. The amount of radioactivity bound was determined by counting plates on a Packard TopCount. Data was analyzed using GraphPad Prism, and […] and Emax values (relative to the maximum glutamate effect) were calculated using non-linear regression.
A general note: GTPγS resists hydrolysis and so accumulates on activated G proteins.
Regarding `O=C1OC2(CCCCC2)CN1Cc1ccc(-c2ccccc2)cc1` [Example 3.2, 3-Biphenyl-4-ylmethyl-1-oxa-3-aza-spiro[4.5]decan-2-one], the EC50 was found to be 0.095 µM.

As to `O=C1OC2(CCCCC2)CN1Cc1ccc(-c2ccccc2CN2CCOCC2)cc1` [Example 1.1, 3-(2′-Morpholin-4-ylmethyl-biphenyl-4-ylmethyl)-1-oxa-3-aza-spiro[4.5]decan-2-one], the EC50 is 0.326 µM.

For the molecule `O=C1OC2(CCCCC2)CN1Cc1ccc(-c2ccc(NCCN3CCOCC3)nc2)cc1` [Example 1.30, 3-{4-[6-(2-Morpholin-4-yl-ethylamino)-pyridin-3-yl]-benzyl}-1-oxa-3-aza-spiro[4.5] decan-2-one], the concentration for a half-maximal effect (EC50) turned out to be 1 µM.

Take `O=C1OC2(CCC3(CC2)OCCO3)CN1Cc1ccc(-c2ccc(F)cc2)cc1` [Example 1.49, 3-(4′-Fluoro-biphenyl-4-ylmethyl)-1,9,12-trioxa-3-aza-dispiro[4.2.4.2]tetradecan-2-one]: the EC50 stood at 0.381 µM.

For the molecule `O=C1OC2(CCCCC2)CN1Cc1ccc(-c2ccc(Oc3ccccc3)cc2)cc1` [Example 1.6, 3-(4′-Phenoxy-biphenyl-4-ylmethyl)-1-oxa-3-aza-spiro[4.5]decan-2-one], the EC50 is 0.014 µM.
